Measured values from US11273154B2, “Azole compounds as ubiquitin-specific protease USP7 inhibitors” (PROGENRA, INC., priority 2017, dated 2022).

How the values were obtained:
Format in all cases: cell-based
[1] = tested on: DNMT1, UHRF1 and HDM2; assay: Immunoblot of USP7 oncogenic substrate levels in Jurkat cells; conditions: 20 μg total cell lysate, FIG. 5
Description: FIG. 5 graphically illustrates a decrease in USP7 oncogenic substrates DNMT1, UHRF1 and HDM2 levels in Jurkat cells treated with the USP7i compound 1. 20 μg total cell lysates from each sample was separated on 10% SDS-PAGE and immunoblotted with antibodies against DNMT1, UHRF1, HDM2 and Actin (loading control).

[2] = target: T1, USP7 (Homo sapiens, UniProt Q93009); assay: DUB activity of USP7 immunoprecipitated from pulse-treated Jurkat cells (Ub-EKL assay); conditions: Jurkat cells pulse treated with 10 μM-0.1 μM for 2 hours, FIG. 4A-4B
T1 construct: followed by DUB activity measurement of immunoprecipitated USP7; endogenous in cells; host or cells: Jurkat cells
T1 sequence (Q93009 whole entry): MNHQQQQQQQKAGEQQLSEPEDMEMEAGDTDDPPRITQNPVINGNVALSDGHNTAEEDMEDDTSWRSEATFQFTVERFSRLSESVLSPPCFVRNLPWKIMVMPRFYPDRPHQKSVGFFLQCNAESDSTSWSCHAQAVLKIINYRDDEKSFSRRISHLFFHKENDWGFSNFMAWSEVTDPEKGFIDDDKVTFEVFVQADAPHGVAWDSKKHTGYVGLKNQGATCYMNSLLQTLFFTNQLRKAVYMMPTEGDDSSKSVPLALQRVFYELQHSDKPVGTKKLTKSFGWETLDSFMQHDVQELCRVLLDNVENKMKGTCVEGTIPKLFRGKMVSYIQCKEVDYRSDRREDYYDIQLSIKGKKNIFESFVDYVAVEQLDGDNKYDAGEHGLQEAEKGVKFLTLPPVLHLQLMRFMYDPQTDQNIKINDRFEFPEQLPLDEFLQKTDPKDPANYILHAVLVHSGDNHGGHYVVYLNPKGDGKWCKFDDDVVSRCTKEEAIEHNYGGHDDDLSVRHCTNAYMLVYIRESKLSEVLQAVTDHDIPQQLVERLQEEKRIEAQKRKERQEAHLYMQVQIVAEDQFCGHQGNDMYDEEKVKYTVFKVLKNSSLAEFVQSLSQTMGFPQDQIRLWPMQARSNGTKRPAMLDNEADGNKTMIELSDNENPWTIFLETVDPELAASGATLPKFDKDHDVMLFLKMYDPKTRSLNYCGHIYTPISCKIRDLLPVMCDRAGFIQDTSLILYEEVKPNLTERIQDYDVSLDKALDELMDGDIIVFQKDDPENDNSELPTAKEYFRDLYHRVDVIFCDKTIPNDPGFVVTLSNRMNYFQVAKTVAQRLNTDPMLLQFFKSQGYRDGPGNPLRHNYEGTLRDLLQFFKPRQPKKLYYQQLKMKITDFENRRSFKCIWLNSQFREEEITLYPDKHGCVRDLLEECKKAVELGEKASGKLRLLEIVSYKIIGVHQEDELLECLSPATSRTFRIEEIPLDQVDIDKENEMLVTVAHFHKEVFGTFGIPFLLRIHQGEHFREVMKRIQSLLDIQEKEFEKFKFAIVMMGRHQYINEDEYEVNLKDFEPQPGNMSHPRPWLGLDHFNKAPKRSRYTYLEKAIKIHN
Description: Jurkat cells were pulse treated with doses ranging from 10 μM-0.1 μM of compound 1 or DMSO as vehicle control for 2 hours followed by DUB activity measurement of immunoprecipitated USP7 (FIG. 4A) as well as total cell lysate (FIG. 4B) using Ub-EKL assay (U.S. Pat. No. 8,680,139). A portion of the immunoprecipitated USP7 is separated on 10% SDS-PAGE and immunoblotted with anti-USP7 antibody to detect the level of USP7 protein (shown at the top of graphs in FIG. 4A).

[3] = tested on: Murine Tregs; assay: Treg suppression assay with CFSE labeled T effector cells (FACS); conditions: Murine Tregs pre-treated for 2 hours, washed, incubated with CFSE labeled T effector cells for 3 days; FIG. 6
Description: Murine Tregs were pre-treated with compound 1 for 2 hours, washed and incubated with carboxyfluorescein succinimidyl ester (CFSE) labeled T effector cells at varying concentrations for 3 days. T effector cell proliferation was monitored using FACS analysis. Percentage proliferation is plotted using Graphpad prism.

- mode of USP7 inhibition (DUB activity of immunoprecipitated USP7 after pulse treatment) [2]: irreversible inhibitors
Structure (SMILES): O=C(Nc1ccc2c(c1)S(=O)(=O)C=C2)c1nnc(Sc2c(Cl)cncc2Cl)s1 [compound 1, 5-((3,5-dichloropyridin-4-yl)thio)-N-(1,1-dioxido-2,3-benzo[b]thiophen-6-yl)-1,3,4-thiadiazole-2-carboxamide]
- USP7 oncogenic substrates DNMT1, UHRF1 and HDM2 levels [1]: decrease
- Treg functions (T effector cell proliferation) [3]: inhibition of Treg functions
